Read-outs that look alike come from different tables or passages of the source.
Columns and labels:
[1] = molecular target: T1, hydroxyacyl Coenzyme A dehydrogenase, type II isoform 1 (Homo sapiens, UniProt Q99714); assay: binding to immobilized V16742 (IVA1/IVA2, HeLa lysate, MS)
T1 construct: endogenous in cells; host or cells: HeLa S3
T1 sequence (Q99714 1-261): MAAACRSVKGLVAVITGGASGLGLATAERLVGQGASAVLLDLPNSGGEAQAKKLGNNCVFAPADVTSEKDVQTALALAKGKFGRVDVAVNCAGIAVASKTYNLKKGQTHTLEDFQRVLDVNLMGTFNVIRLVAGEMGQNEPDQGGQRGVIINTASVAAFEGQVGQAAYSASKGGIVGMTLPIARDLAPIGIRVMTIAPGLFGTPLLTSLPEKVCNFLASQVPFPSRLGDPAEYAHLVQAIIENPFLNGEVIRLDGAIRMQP

[2] = molecular target: T2, Isoform 1 of Nicotinamide phosphoribosyltransferase (Homo sapiens, UniProt P43490); assay: as above
T2 construct: endogenous in cells; host or cells: HeLa S3

[3] = molecular target: T3, 2-PDE (IPI00174390) (Homo sapiens, UniProt Q6L8Q7); assay: binding to VI16742 beads (HeLa lysate, SILAC MS)
T3 construct: endogenous in cells; host or cells: HeLa S3 cell lysate
T3 sequence (Q6L8Q7 43-609): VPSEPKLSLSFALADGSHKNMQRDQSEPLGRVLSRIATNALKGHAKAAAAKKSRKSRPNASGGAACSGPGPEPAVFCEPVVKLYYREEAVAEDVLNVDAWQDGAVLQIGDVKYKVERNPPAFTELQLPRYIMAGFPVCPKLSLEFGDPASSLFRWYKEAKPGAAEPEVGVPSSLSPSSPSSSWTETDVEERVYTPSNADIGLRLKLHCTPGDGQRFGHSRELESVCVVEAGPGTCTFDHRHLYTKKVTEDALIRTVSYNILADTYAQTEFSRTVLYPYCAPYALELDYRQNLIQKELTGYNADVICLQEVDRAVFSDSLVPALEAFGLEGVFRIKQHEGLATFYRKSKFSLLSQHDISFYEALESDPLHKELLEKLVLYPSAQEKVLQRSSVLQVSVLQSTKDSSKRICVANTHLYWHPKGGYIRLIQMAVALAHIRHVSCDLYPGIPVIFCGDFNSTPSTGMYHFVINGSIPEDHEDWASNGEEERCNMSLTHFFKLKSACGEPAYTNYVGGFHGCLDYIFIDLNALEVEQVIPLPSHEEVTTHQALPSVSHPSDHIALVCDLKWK
Procedure, shortened: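 First, lysate proteins are exposed to beads bearing the pyrido[2,3-d]pyrimidine-based inhibitor. Next, specifically retained proteins are identified.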

[4] = molecular target: T4, NT5DC1 (IPI00177965) (Homo sapiens, UniProt Q5TFE4); assay: binding to VI16742 beads (HeLa lysate, SILAC MS)
T4 construct: endogenous in cells; host or cells: HeLa S3 cell lysate
T4 sequence (Q5TFE4 1-455): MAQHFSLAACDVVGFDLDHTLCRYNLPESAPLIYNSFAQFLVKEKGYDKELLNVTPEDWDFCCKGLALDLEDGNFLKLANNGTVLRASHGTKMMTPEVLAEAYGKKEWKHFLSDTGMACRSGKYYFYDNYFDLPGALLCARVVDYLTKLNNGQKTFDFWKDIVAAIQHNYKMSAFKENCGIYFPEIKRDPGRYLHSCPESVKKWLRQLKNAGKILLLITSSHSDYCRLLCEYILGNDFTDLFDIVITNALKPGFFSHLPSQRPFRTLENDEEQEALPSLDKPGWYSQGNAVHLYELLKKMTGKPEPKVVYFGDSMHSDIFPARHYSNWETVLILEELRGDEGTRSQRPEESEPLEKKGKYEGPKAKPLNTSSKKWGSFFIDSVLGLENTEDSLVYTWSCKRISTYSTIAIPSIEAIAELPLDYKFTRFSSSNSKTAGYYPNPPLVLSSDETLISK

[5] = molecular target: Erk1 (Homo sapiens, UniProt P27361); assay: binding to immobilized V16742 (IVA1/IVA2, HeLa lysate, MS)
Method: Using the three populations of SILAC-labelled cells and the three different inhibitor resins, two parallel experiments termed as IVA1 (In Vitro Association, Setting 1) and IVA2 (In Vitro Association, Setting 2) were performed. […] In IVA2, SILAC encoded HeLa cells lysates were subjected to two parallel rounds of consecutive affinity purification at the highest ligand density where the supernatant left behind after the first IVA was used for the second round of IVA. An additional incubation of Hela cell lysate with control beads devoid of immobilized inhibitor was also performed to distinguish background binders.
A common IPI identifier template was assigned to peptides based on the MASCOT html-output file for the IVA2 setting in first experiment. The proteins hits identified based on unique peptides were filtered for mass error and MASCOT score. Eventually, the hits identified in both first and second IVA2 experiments were quantified for IVA2 setting of first experiment by MSQuant. […] A next round of sorting was done to filter out protein hits that are less than 50% enriched in the IVA second round compared to IVA first round. This is because at enrichment below 50%, there could be significant errors in deducing kd values for the corresponding targets. […] The same set of targets was also quantified in IVA2 and IVA1 settings of an independent second experiment.

[6] = molecular target: p38a (MAPK14, IPI00221141) (Homo sapiens, UniProt Q16539); assay: gefitinib competition against AX14596 beads (HeLa lysate, SILAC MS); type: binding
[7] = molecular target: SNRPG (Homo sapiens, UniProt P62308)
[8] = molecular target: RPL7A (Homo sapiens, UniProt P62424)
[9] = average of two experiments, read-out: Kd Avg
[10] = control beads vs first incubation

Sequence of SNRPG (P62306 whole entry): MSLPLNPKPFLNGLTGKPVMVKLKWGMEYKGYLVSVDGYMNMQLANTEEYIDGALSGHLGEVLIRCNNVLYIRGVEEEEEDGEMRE
Sequence of SNRPG (P62304 whole entry, further chain): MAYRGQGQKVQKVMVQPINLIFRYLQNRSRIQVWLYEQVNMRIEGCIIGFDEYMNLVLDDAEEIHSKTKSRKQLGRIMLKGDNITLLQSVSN
Sequence of SNRPG (P62308 whole entry): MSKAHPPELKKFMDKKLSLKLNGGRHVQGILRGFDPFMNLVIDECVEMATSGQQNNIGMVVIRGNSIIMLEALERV
Sequence of Erk1 (P27361 whole entry): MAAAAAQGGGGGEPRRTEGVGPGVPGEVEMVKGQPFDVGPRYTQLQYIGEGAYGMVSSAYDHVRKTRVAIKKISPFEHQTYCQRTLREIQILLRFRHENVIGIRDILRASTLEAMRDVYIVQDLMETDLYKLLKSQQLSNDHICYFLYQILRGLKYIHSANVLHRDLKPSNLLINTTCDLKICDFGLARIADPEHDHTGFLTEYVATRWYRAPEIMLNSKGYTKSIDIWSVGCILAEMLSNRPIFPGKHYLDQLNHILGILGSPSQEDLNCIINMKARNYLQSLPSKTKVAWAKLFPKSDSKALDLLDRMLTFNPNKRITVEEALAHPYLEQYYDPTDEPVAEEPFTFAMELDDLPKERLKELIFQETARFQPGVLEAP
T2 sequence (P43490 whole entry, canonical isoform): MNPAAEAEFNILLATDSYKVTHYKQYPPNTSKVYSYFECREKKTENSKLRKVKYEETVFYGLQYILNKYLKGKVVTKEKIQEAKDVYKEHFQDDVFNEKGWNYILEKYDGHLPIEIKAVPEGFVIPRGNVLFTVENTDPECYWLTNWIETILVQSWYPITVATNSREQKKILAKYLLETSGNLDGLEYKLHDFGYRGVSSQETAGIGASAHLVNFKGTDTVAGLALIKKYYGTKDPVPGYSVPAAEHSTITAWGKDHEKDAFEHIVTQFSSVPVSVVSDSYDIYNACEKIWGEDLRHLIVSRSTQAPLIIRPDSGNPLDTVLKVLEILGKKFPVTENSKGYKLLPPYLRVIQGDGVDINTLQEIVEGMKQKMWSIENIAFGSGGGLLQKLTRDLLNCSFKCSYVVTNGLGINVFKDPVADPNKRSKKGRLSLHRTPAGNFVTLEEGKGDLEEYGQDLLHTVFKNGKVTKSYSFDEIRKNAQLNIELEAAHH
Sequence of p38a (MAPK14, IPI00221141) (Q16539 1-360 isoform Q16539-2): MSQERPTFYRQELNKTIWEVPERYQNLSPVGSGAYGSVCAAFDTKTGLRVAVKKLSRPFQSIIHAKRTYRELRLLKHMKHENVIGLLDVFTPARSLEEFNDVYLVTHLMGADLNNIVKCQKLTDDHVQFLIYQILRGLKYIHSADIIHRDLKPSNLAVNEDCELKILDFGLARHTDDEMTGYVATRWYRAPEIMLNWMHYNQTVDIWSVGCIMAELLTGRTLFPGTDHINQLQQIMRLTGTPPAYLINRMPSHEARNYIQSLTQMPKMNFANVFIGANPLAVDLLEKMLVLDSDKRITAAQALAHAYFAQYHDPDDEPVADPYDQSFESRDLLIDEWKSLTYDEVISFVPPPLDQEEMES

## CC(C)n1c(=O)ccc2cnc(Nc3ccc(OCCN)cc3)nc21 [V16742]
[1]; Experiment 1, 1.87 μM 16742
  Percent bound at various 16742 conc: 4.41%
[1]; Experiment 1, 8.74 μM 16742
  Percent bound at various 16742 conc: 4.37%
[1]; Experiment 1, 52 μM 16742
  Percent bound at various 16742 conc: 62.08%
[1]; Experiment 1, read-out: Kd
  Kd: 42.7 µM
[1]; Experiment 2, 1.87 μM 16742
  Percent bound at various 16742 conc: 8.75%
[1]; Experiment 2, 8.74 μM 16742
  Percent bound at various 16742 conc: 10.79%
[1]; Experiment 2, 52 μM 16742
  Percent bound at various 16742 conc: 41.03%
[1]; Experiment 2, read-out: Kd
  Kd: 72.8 µM
[1]; [9]
  Kd: 57.7 µM
[2]; Experiment 1, 1.87 μM 16742
  Percent bound at various 16742 conc: 2.80%
[2]; Experiment 1, 8.74 μM 16742
  Percent bound at various 16742 conc: 2.70%
[2]; Experiment 1, 52 μM 16742
  Percent bound at various 16742 conc: 54.03%
[2]; Experiment 1, read-out: Kd
  Kd: 54.8 µM
[2]; Experiment 2, 1.87 μM 16742
  Percent bound at various 16742 conc: 2.28%
[2]; Experiment 2, 8.74 μM 16742
  Percent bound at various 16742 conc: 3.40%
[2]; Experiment 2, 52 μM 16742
  Percent bound at various 16742 conc: 41.68%
[2]; Experiment 2, read-out: Kd
  Kd: 80.3 µM
[2]; [9]
  Kd: 67.5 µM
[3]; [10]
  rAVERAGE (CTRL/1 INC): 0.03
[3]; immobilized VI16742
  Ki: 100 µM
[3]; second vs first incubation
  rAVERAGE (2 INC/1 INC): 0.66
[4]; [10]
  rAVERAGE (CTRL/1 INC): 0.07
[4]; immobilized VI16742
  Ki: 94.8 µM
[4]; second vs first incubation
  rAVERAGE (2 INC/1 INC): 0.65
[5]
  Kd: 57.8 µM
[5]; Erk1, Experiment 1, 1.87 μM 16742
  Percent bound at various 16742 conc: 1.06%
[5]; Erk1, Experiment 1, 8.74 μM 16742
  Percent bound at various 16742 conc: 2.41%
[5]; Erk1, Experiment 1, 52 μM 16742
  Percent bound at various 16742 conc: 52.52%
[5]; Erk1, Experiment 2, 1.87 μM 16742
  Percent bound at various 16742 conc: 0.91%
[5]; Erk1, Experiment 2, 8.74 μM 16742
  Percent bound at various 16742 conc: 2.38%
[5]; Erk1, Experiment 2, 52 μM 16742
  Percent bound at various 16742 conc: 45.83%
[5]; Kd Avg, Erk1, average of two experiments
  Kd: 64.4 µM
[5]; Kd, Erk1, Experiment 2
  Kd: 71.1 µM
[5]; Kd, Erk1, immobilized V16742
  Kd: 64.4 µM

## COc1cc2ncnc(Nc3ccc(F)c(Cl)c3)c2cc1OCCCN1CCOCC1 [gefitinib]
[6]
  rAVERAGE (10 nM/0 nM Gef.): 0.88
  rAVERAGE (100 nM/0 nM Gef.): 0.97
  rAVERAGE (1000 nM/0 nM Gef.): 0.97
  rAVERAGE (10000 nM/0 nM Gef.): 0.64
[7]
  rAVERAGE (10 nM/0 nM Gef.): 0.65
  rAVERAGE (100 nM/0 nM Gef.): 1.09
  rAVERAGE (1000 nM/0 nM Gef.): 0.72
  rAVERAGE (10000 nM/0 nM Gef.): 0.89
[8]
  rAVERAGE (10 nM/0 nM Gef.): 0.92
  rAVERAGE (100 nM/0 nM Gef.): 0.88
  rAVERAGE (1000 nM/0 nM Gef.): 0.59
  rAVERAGE (10000 nM/0 nM Gef.): 0.79

— US8959984B2, “Proteome-wide quantification of small molecule binding to cellular target proteins” (priority 2007, dated 2015)
